In patent publication US6452005B1, “JAK-3 inhibitors for treating allergic disorders” (Parker Hughes Institute, priority 1999, dated 2002):
Where two headings read alike, the source gives them in different places.

Experiments:
RBL-2H3 mast cells = assay: IgE/antigen-induced degranulation and mediator release; format: cell-based, rat; conditions: 1 h preincubation, DNP-BSA challenge; at ≧30 μM
Excerpt: Vehicle treated control RBL-2H3 cells released 45.1±3.1% of their hexosaminidase contents after DNP-BSA challenge. […] Vehicle treated control cells released 11.3±1.3 pg LTC4, and 160±33.0 pg TNFα/10^6 mast cells. The results on LTC4 and TNFα release are expressed as percent of maximum control release from vehicle treated control mast cells. The data points represent the mean±SEM values obtained from 3-6 independent experiments. […] *P<0.05 and **P<0.0001 compared to control as determined by Student's t test.
Supernatants were removed and saved.

recombinant JAK2 = recombinant JAK2 (Homo sapiens, UniProt O60674); assay: Immune complex kinase assay, recombinant JAK2; conditions: FIG. 6C & D
Description: In FIGS. 6A-6D, JAK3, JAK1, and JAK2 were immunoprecipitated from Sf21 insect ovary cells transfected with the appropriate baculovirus expression vectors and treated with WHI-P131, then subjected to in vitro kinase assays as described in the Examples below. The enzymatic activity of JAKs was determined by measuring autophosphorylation in a 10 minute kinase assay, as described in the Examples below. The kinase activity (KA) levels were expressed as percentage of baseline activity (%CON).
Immune Complex Kinase Assays. Sf21 (IPLB-SF21-AE) cells (Vassilev et. al., 1999, J. Biol. Chem,. 274:1646-1656) derived from the ovarian tissue of the fall armyworm Spodotera frugiperda, were obtained from Invitrogen and maintained at 26-28° C. in Grace's insect cell medium supplemented with 10% FBS and 1.0% antibiotic/antimycotic (GIBCO-BRL). Stock cells were maintained in suspension at 0.2-1.6×10^6/ml in 600 ml total culture volume in 1 L Bellco spinner flasks at 60-90 rpm. Cell viability was maintained at 95-100% as determined by trypan blue dye exclusion.
Sf21 cells were infected with a baculovirus expression vector for BTK, SYK, JAK1, JAK2, or JAK3, as previously reported (Mahajan et. al., 1999, J. Biol. Chem., 274:1646-1656). […]

recombinant JAK1 = biological target: T1, recombinant JAK1 (Homo sapiens, UniProt P23458); assay: Immune complex kinase assay, recombinant JAK1; format: biochemical; conditions: FIG. 6C & D
T1 construct: made in house; host or cells: Sf21 insect cells, baculovirus
Excerpt: (§1) Immune Complex Kinase Assays.

[1] = test system: JAK1/JAK2-dependent STAT activation; assay: EMSA, IL-3 triggered STAT activation in 32Dc11/IL2Rβ cells; format: cell-based; conditions: 10 μg/ml
Description: (§2) Electrophoretic Mobility Shift Assays (EMSAs). EMSAs were performed to examine the effects of dimethoxyquinazoline compounds on cytokine-induced STAT activation (Goodman et. al., 1998). […] Cells were collected after 15 minutes and resuspended in lysis buffer (100 mM Tris-HCl pH 8.0, 0.5% NP-40, 10% glycerol, […], 0.1 mM NaVO3, 50 mM NaF, 150 mM NaCl, 1 mM DTT, 3 μg/ml Aprotinin, 2 μg/ml Pepstatin A, 1 μg/ml Leupeptin and 0.2 mM PMSF). Lysates were precleared by centrifugation for 30 min. Cell extracts (approximately 10 μg) were incubated with 2 μg of poly(dI-dC) for 30 minutes, followed by a 30 minutes incubation with 1ng of poly. nucleotide kinase-^32P labeled double stranded DNA oligonucleotide representing the IRF-1 STAT DNA binding sequence (Santa Cruz Biotechnology, Santa Cruz, Calif.). Samples were resolved by non-denaturing PAGE and visualized by autoradiography.

recombinant murine JAK3 = biological target: T2, recombinant murine JAK3 (Mus musculus, UniProt Q62137); assay: Immune complex kinase assay, recombinant JAK3 from baculovirus expression system; format: biochemical; conditions: recombinant murine JAK3, FIG. 6B
T2 construct: made in house; host or cells: Sf21 insect cells, baculovirus
T2 sequence (Q62137 1-1100): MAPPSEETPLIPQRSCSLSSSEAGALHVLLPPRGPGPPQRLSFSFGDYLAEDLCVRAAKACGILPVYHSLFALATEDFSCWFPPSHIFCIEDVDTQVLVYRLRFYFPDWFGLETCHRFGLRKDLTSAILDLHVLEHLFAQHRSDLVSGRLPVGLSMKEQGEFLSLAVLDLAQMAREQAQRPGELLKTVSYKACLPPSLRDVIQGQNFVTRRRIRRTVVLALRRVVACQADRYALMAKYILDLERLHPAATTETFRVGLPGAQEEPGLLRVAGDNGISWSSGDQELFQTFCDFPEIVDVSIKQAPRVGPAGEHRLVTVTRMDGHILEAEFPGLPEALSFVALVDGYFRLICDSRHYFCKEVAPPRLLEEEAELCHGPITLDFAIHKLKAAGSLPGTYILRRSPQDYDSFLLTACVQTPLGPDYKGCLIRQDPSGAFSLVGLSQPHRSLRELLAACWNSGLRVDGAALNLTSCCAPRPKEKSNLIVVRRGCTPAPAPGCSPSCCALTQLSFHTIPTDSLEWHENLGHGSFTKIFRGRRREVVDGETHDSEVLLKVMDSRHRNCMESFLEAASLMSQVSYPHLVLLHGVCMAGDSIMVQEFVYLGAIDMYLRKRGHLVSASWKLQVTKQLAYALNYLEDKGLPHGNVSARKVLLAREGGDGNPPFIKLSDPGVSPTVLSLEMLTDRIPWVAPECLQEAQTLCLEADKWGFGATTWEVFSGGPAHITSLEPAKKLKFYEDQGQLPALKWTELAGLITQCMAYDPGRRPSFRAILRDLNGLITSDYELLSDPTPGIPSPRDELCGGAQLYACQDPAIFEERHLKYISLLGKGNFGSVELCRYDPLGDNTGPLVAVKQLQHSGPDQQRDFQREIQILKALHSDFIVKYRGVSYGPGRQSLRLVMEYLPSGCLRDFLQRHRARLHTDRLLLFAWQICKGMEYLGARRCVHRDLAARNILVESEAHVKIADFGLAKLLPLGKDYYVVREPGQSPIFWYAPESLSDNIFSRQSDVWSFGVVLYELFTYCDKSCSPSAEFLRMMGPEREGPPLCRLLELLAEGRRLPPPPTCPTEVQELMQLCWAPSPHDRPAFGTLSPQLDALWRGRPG
Description: as §1
KL-2 EBV-transformed human lymphoblastoid B cells (native JAK3 kinase assays) or insect ovary cells (recombinant JAK3 kinase assays) were lysed with NP-40 lysis buffer (50 mM Tris, pH 8, 150 mM NaCl, 5 mM EDTA, 1% NP-40, 100 μM sodium orthovanadate, 100 μM sodium molybdate, 8 μg/ml aprotinin, 5 μg/ml leupeptin, and 500 μM PMSF) and centrifuged 10 minutes at 13000×g to remove insoluble material. Samples were immunoprecipitated with antisera prepared against JAK3. The antisera were diluted and immune complexes collected by incubation with 15 μl protein A Sepharose. After 4 washes with NP-40 lysis buffer, the protein A Sepharose beads were washed once in kinase buffer (20 mM MOPS, pH 7.0, 10 mM MgCl2) and resuspended in the same buffer. Reactions were initiated by the addition of 25 μCi γ[^32P] ATP (5000 Ci/mMole) and unlabeled ATP to a final concentration of 5 μM. Reactions were terminated by boiling for 4 min in SDS sample buffer. Samples were run on 9.5% SDS polyacrylamide gels and labeled proteins will be detected by autoradiography. […] For each drug concentration, a kinase activity index (KA) was determined by comparing the kinase activity in phosphorimager units (PIU) to that of the baseline sample. […]

[2] = test system: JAK3-dependent STAT activation; assay: EMSA, IL-2 triggered STAT activation in 32Dc11/IL2Rβ cells; format: cell-based
Description: as §2

Sequence of recombinant JAK2 (O60674 whole entry): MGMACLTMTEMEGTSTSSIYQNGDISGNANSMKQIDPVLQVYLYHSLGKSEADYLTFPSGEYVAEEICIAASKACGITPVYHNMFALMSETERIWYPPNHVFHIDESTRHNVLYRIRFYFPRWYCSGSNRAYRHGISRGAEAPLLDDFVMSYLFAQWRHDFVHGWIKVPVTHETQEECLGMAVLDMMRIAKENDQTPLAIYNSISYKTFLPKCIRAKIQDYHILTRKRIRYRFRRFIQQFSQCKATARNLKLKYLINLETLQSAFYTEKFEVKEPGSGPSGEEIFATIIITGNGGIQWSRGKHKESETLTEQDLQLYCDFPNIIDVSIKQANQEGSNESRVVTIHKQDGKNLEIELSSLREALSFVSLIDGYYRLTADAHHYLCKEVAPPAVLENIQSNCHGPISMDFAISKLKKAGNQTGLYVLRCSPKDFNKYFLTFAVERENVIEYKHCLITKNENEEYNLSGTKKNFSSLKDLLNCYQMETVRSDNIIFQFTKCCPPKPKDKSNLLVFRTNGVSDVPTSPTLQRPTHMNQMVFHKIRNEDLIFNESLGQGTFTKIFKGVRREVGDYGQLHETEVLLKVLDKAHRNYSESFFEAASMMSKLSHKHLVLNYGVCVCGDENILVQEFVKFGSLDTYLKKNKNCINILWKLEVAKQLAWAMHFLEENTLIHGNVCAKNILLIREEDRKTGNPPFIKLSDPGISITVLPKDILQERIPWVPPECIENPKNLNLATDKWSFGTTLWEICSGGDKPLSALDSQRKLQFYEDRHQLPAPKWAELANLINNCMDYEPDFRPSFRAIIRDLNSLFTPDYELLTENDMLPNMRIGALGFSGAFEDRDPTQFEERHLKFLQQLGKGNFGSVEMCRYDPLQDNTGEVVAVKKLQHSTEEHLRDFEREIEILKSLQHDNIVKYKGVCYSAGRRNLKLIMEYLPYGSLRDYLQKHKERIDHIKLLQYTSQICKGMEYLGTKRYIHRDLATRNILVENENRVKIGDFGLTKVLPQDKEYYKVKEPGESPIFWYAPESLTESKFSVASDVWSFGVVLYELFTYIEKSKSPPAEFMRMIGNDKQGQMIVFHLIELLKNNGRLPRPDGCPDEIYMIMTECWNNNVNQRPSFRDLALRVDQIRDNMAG
T1 sequence (P23458 whole entry): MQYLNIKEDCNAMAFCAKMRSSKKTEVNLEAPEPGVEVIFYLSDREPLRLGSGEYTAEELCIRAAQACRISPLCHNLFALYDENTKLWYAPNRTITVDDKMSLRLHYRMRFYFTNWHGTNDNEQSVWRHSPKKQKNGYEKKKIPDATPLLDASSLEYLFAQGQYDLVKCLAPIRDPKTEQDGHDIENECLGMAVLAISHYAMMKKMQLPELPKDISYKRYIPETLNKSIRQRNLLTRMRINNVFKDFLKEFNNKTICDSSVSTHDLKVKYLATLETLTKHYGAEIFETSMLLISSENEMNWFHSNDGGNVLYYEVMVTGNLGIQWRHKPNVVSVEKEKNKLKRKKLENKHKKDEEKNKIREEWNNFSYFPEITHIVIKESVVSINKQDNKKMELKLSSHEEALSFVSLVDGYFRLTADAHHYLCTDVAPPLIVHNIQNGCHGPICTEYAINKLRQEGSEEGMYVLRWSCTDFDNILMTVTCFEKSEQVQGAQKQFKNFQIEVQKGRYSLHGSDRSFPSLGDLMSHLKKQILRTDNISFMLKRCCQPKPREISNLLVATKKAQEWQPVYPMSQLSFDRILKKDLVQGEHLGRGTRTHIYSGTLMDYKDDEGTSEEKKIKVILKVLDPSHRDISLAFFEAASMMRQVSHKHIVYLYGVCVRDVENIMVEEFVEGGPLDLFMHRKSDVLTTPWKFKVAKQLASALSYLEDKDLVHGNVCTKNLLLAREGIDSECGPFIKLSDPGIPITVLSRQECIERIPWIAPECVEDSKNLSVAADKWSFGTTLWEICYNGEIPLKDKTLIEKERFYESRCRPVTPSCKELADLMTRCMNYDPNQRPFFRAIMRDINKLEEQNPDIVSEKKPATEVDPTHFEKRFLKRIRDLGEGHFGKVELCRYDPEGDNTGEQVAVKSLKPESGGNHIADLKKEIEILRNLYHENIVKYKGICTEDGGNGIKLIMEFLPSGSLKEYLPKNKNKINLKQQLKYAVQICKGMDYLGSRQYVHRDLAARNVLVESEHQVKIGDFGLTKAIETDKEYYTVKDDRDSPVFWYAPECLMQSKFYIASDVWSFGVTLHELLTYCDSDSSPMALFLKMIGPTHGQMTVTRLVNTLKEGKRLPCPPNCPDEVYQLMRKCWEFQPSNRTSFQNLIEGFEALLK

Which LTC4 release (RBL-2H3 mast cells) does the source give for `COc1cc2ncnc(Nc3ccc(O)c(Br)c3)c2cc1OC` [WHI-P154, 4-(3′-Bromo-4′-hydroxylphenyl)-amino-6,7-dimethoxyquinazoline] here?
The LTC4 release was “near to complete inhibition”.

What about the TNFα release (RBL-2H3 mast cells) of the same compound?
Its TNFα release is “near to complete inhibition”.

What about the “β-hexosaminidase release (degranulation)” value (RBL-2H3 mast cells) of the same compound?
The value was “near to complete inhibition”.

And the “inhibitory activity against recombinant JAK2” value (recombinant JAK2)?
Its value is “did not exhibit any detectable inhibitory activity”.

What about the “inhibitory activity against recombinant JAK1” value (recombinant JAK1) of the same compound?
The value was “did not exhibit any detectable inhibitory activity”.

And the “JAK1/JAK2-dependent STAT activation after stimulation with IL-3” value [1]?
Its value is “did not affect”.

And the IC50 (recombinant murine JAK3)?
The IC50 was 48.1 µg/mL.

What about the IC50 (recombinant murine JAK3; molar value in brackets, read-out: IC50) of the same compound?
The IC50 was about 128 µM.

And the “JAK3-dependent STAT activation after stimulation with IL-2” value ([2]; 10 μg/ml, 32Dc11/IL2Rβ cells)?
Its value is “inhibited”.

What about the “IL-2 triggered JAK-3-dependent STAT activation” value ([2]; 100 μg/ml in FIG. 6E legend) of the same compound?
Its value is “inhibited”.
